Results taken from article PMC5116089, “Sulfheme formation during homocysteine S-oxygenation by catalase in cancers and neurodegenerative diseases” (Nature Communications, 2016).
Like-named read-outs stand apart in the source and are kept apart here.

Legend:
Bovine liver catalase = target: T1, Bovine liver catalase (Bos taurus, UniProt P00432); assay: Comparative kinetic studies by ultraviolet-visible spectroscopy (compound II and Fe(II) sulfonium formation); assay type: biochemical; conditions: CAT + 2 mM HCys, 1 mM DTPA, pH 7.4, with the additive named (dimedone 4 mM, BCN 0.1 mM, SOD 40 U)
T1 construct: Bovine liver catalase was also purchased from Sigma-Aldrich; purchased Sigma-Aldrich; host or cells: bovine liver
T1 sequence (P00432 2-527 limits assumed): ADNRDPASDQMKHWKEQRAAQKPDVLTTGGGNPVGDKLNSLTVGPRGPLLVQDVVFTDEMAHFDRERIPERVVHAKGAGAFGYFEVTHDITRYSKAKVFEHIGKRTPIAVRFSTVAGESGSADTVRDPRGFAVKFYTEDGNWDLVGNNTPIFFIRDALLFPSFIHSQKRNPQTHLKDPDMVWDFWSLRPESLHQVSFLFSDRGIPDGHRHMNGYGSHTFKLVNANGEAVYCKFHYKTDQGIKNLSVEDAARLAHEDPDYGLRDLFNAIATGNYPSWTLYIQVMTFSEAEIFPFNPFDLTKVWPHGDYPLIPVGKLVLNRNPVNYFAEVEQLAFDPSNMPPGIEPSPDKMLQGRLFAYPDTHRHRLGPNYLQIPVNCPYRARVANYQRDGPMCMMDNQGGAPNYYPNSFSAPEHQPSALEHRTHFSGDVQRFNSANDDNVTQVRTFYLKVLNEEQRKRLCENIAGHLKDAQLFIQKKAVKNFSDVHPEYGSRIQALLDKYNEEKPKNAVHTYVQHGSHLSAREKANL
Method: Ultraviolet–visible spectra were recorded on a Cary 300 Scan or an Uvikon 941 spectrophotometer equipped with a temperature equilibrating water bath (±1 °C). Spectral changes over time were recorded when CAT was incubated with L-HCys (0.2 or 2 mM), L-Cys (0.2, 2 or 9 mM) or GSH (1 or 30 mM) at 25 °C in a 1 ml quartz cuvette containing a solution of CAT (2.7–5.9 μM) in 50 mM KPi, pH 7.4±1 mM DTPA. Due to half-site reactivity of biological thiols with CAT, the data were recorded versus a blank containing half the concentrations of CAT used in the experiments, that is, a solution of 1.35–2.95 μM CAT in 50 mM KPi at pH 7.4±1 mM DTPA. Reactions were initiated by addition of the thiol-containing compounds. Comparative kinetic studies were performed by incubating CAT ([…] in the experiment, 1.35–1.5 μM in the blank) with 2 mM L-HCys in 50 mM KPi, pH 7.4, 1 mM DTPA with or without […], 5,5-dimethyl-1,3-cyclohexanedione (dimedone, 4 mM), BCN (0.1 mM) or SOD, 40 U). All the experiments were performed at least in duplicate.

Hek 293T cells = assay: H2O2 consumption in cell lysates as a function of NaSH concentration; assay type: biochemical; conditions: read-out: relative IC50 (rate of H2O2 consumption)
Method: CAT activity was measured on an Uvikon 941 spectrophotometer equipped with a temperature controlled water bath (±1 °C) by following the disappearance of H2O2 at 240 nm over 30–120 s at 25 °C. Catalase activity was calculated based on the rate of decomposition of hydrogen peroxide, which is proportional to the reduction of the absorbance at 240 nm. Experiments were carried out in a 3 ml quartz cuvette containing 11.7 mM H2O2 in 50 mM KPi, pH 7.4±1 mM DTPA and the reaction was initiated by adding 0.3–0.6 pmoles of CAT. The effect of biological thiols on the activity of CAT under physiological conditions was determined from a solution of CAT (30–60 nM) preincubated at 25 °C for at least 120 min as a function thiol concentration (0–40 mM for HCys and Cys, 0–100 mM for GSH) in 50 mM KPi, pH 7.4, 1 mM DTPA. Control experiments (biological thiols alone) were also performed in parallel. […] Similarly, the effect of biological thiols on the activity of CAT under pathological conditions was determined from a solution of CAT (30–60 nM) containing a 2.124±0.386 molar excess of iron that was preincubated with various concentrations of thiols (0–1 mM) for at least 120 min at 25 °C in 50 mM KP at pH 7.4. […] The effect of NaSH on the consumption of H2O2 in cell lysates was determined from a solution of cell lysates (0.5–3 mg ml^−1) incubated on ice with various concentrations of NaSH (0–200 μM). […]

Ultraviolet–visible spectroscopy kobs(6) (CAT–Fe(IV)=O formation) (Bovine liver catalase) [min⁻¹]	Compound	IC50 (Hek 293T cells; Hek 293T cells transfected with Htt) [µM]	IC50 (Hek 293T cells; Hek 293T cells transfected with pcDNA) [µM]
0.026 ± 0.003	NC(CCS)C(=O)O (stereo not drawn) [HCys, homocysteine]	–	–
–	[Na+].[SH-] [NaSH]	4 ± 1.5	6.5 ± 3.6
